Test results reported in PubChem BioAssay AID644 (The Scripps Research Institute Molecular Screening Center, 2007).
Calls of active or inactive are those of the source.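 How the source made its calls: active means IC50 at or below a set limit; inactive means IC50 above that limit.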

Molecular target: Rho-associated protein kinase 2 (Homo sapiens) (UniProt O75116)
Test: human Rho kinase 2 inhibition – biochemical, Kinase-Glo luminescence, S6 peptide, 1536-well, dose response (AID 644)
Conditions: recombinant ROCK2, S6 peptide, Kinase-Glo ATP luminescence

Rho-associated protein kinase 2 (Homo sapiens), sequence (O75116 whole entry, looked up): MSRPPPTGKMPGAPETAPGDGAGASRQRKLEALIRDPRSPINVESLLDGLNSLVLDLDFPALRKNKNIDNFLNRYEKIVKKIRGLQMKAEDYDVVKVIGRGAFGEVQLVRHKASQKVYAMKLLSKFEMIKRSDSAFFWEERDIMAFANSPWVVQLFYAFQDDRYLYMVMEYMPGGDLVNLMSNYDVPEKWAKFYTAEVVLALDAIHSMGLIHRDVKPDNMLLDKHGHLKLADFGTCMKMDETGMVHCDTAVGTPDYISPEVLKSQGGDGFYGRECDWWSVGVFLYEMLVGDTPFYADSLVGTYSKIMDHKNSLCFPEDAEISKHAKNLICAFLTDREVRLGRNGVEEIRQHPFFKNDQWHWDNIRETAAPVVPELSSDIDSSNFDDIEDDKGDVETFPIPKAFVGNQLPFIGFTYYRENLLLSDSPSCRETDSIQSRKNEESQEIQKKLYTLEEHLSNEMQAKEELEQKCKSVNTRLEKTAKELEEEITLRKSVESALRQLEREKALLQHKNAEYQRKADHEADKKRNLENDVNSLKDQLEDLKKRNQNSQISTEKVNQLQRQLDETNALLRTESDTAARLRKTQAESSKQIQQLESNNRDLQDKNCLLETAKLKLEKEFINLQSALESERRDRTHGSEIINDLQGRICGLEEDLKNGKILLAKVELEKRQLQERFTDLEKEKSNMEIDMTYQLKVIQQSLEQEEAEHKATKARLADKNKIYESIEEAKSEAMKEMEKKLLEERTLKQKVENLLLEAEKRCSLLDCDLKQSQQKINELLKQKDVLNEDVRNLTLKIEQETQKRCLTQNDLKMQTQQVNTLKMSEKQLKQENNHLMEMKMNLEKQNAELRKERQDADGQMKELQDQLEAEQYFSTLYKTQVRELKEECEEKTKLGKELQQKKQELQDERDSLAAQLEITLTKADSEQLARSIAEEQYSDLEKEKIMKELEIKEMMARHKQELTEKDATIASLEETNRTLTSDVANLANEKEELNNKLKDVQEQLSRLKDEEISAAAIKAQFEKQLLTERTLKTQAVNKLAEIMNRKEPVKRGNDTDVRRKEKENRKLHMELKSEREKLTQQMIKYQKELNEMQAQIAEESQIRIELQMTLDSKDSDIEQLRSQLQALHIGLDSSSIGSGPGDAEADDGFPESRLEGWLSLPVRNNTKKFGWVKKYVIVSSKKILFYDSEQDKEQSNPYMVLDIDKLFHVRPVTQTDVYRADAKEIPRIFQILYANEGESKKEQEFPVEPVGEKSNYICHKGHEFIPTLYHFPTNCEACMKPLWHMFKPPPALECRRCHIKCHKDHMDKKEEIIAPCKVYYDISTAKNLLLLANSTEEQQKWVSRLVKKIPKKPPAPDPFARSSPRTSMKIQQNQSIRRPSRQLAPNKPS

Compound | IC50
CN1/C(=N\O)c2cccc3cccc1c23 | > 19.9 µM (inactive)
COC(=O)c1cccc2c1-c1ccccc1/C2=N/O | > 19.9 µM (inactive)
CCOC(=O)C1=C(CSc2nc(-c3ccncc3)ccc2C#N)OC(N)=C(C#N)C1c1cccnc1 (stereo not drawn) | > 19.9 µM (inactive)
Cc1[nH]nc2c1C(c1ccc(-c3ccccc3C#N)o1)C(C#N)=C(N)O2 (stereo not drawn) | > 19.9 µM (inactive)
COc1cc(N=Cc2c(O)[nH]c3ccccc23)cc(OC)c1OC | inactive
CC1=NN(c2ccccc2)C(=O)C1 | > 59.6 µM (inactive)
CN(C(=O)c1cccc(N2C(=O)C3CC=CCC3C2=O)c1)C1CCCCC1 (stereo not drawn) | > 59.6 µM (inactive)
O/N=C/c1c[nH]c2ccccc12 | 4.81 µM
